Patent US7160908B2, “Dynamic anticancer platinum compounds” (Unitech Pharmaceuticals, Inc., priority 2003, dated 2007)

How the values were obtained:
[1] = system: Ovary, OVCAR-3 Tumor Cell; assay: Anti-proliferative activity, alamarBlue cell viability, OVCAR-3; format: cell-based, human; conditions: for Percent Growth (Mean of 2): 72-hour incubation, vehicle = 100
Description: (§1) UTD-4-A was dissolved in 100% DMSO and then diluted with sterile distilled water to obtain initial working solutions of […] in 40% DMSO. A 100-fold dilution was further made in culture media to generate final assay concentrations of […] in 0.4% DMSO.
(§2) Aliquots of […] of cell suspension (about 2.5×10^3/well) were placed in 96-well microtiter plates in an atmosphere of 5% CO2 at 37° C. After 24 hours, […] of growth medium and […] of test solution or vehicle (40% DMSO) were added respectively per well in duplicate for an additional 72-hour incubation.
(§3) Thus, the final concentration of DMSO was 0.4%. The test compound, UTD-4-A, was evaluated at concentrations of […]. At the end of incubation, […] of 90% alamarBlue reagent was added to each well for another 6-hour incubation before detection of cell viability by fluorescent intensity. Fluorescent intensity was measured using a Spectraflour Plus plate reader with excitation at 530 nm and emission at 590 nm.

Colon, HT-29 Tumor Cells = assay: Anti-proliferative activity, alamarBlue cell viability, HT-29; format: cell-based, human; conditions: for Percent Growth (Mean of 2): 72-hour incubation, vehicle = 100
Description: as §1, §2, §3

[2] = concentrations between 10 and 100 μM

“cis-[Pt(NH3)(NH2—CHCH3—CO—O)]Cl [UTD-4-A]” was tested, and the “Percent Growth (Mean of 2)” value ([1]; 1 μM) was 100 ± 6, the “Percent Growth (Mean of 2)” value ([1]; 10 μM) was 85 ± 3 and the “Percent Growth (Mean of 2)” value ([1]; 100 μM) was 30 ± 3. For the same substance, the “growth inhibition relative to the vehicle-treated control” value [1, 2] was “significant growth inhibition”, the “Percent Growth (Mean of 2)” value (Colon, HT-29 Tumor Cells; 1 μM) was 100 ± 6 and the “Percent Growth (Mean of 2)” value (Colon, HT-29 Tumor Cells; 10 μM) was 95 ± 8. For the same substance, the “Percent Growth (Mean of 2)” value (Colon, HT-29 Tumor Cells; 100 μM) was 41 ± 4 and the “growth inhibition relative to the vehicle-treated control” value (Colon, HT-29 Tumor Cells; [2]) was “significant growth inhibition”.
